In article PMC12264794, “Homoleptic complexes of titanium(IV) fused with O^N^O Schiff base derivatives: design, BSA–DNA interaction, molecular docking, DFT and cytotoxicity” (RSC Advances, 2025):

Key:
[1] = system: CT-DNA; assay: UV-vis absorption titration with CT-DNA; assay type: binding, calf
Protocol: The UV-vis titration technique was employed to conduct DNA binding investigations of the newly synthesized Ti(IV)complexes. The binding interactions between Ti(IV) complexes and CT-DNA 5 mM (5 × 10^−5 M) produced in PBS buffer were assessed in a 5 mM phosphate buffer (PBS) with a pH of 7.4. The ratio of UV absorbance of CT-DNA at each position, 260 and 280 nm, was confirmed. The concentration of each nucleotide was calculated using the molar absorption coefficient (6600 m^−1) of CT-DNA at 260 nm. Additional dilutions were made in 5 mM PBS buffer solution, and stock solutions of metal complexes were prepared in DMSO. DNA binding experiments were performed with a fixed concentration of the complex (20 μM) and increasing concentrations of CT-DNA (0–80 μM) in sample solutions to detect the CT-DNA absorbance peak.[41,42]
UV-vis spectra typically show a shift in wavelength and a change in absorption spectra as a result of the interaction of the Ti(IV) complexes with DNA. […] Then, using eqn (4), the binding characteristics for the aforementioned complexes, including binding constant (Kb) and binding sites, were determined.4 [drawing 4] where εa, εf, and εb represent the apparent extinction coefficient of the complex, the extinction coefficient of the complex in its free form and the extinction coefficient of the complex when completely bound to DNA.

[2] = system: HEK-293 cells; assay: MTT cytotoxicity assay, HEK-293; assay type: cell-based, human; conditions: 48 h of drug exposure
Protocol: The in vitro cytotoxicity of the Ti(IV) complexes under investigation was investigated using MTT, a micro-titration colorimetric method. The in vitro cytotoxicity test of the Ti(IV) complexes was evaluated against the cervical cancer cell line (HeLa), human breast cancer cell line (MCF-7) and human kidney normal cell line (HEK-293).[65,66]
In the cytotoxicity assay, tetrazolium salt 3-[4,5-dimethylthiazol-2-yl]-2,5diphenyl tetrazolium bromide (MTT) was utilized to assess cell viability. […] A Bio-Rad xMARK™ multi-well plate reader was used to measure the absorbance of each well at 570 nm. Using eqn (2), the percentage viability, which represents the relative viability of the treated cells in comparison to the control cells, was calculated, and the IC50 values and standard deviation of the substances under investigation were calculated in triplicate.2 [drawing 2]
An MTT assay was used to examine the cytotoxic effectiveness of the produced Ti(IV) complexes. After 48 hours of incubation, the cytotoxicity of Ti-1-IS to Ti-6-IBr was evaluated against human cancer cell lines, such as breast carcinoma (MCF7) and cervical cancer (HeLa), as well as the non-cancerous human embryonic kidney (HEK) cell line, by using the widely used therapeutic drug, cis-platin, as a positive control by following the standard protocol.

[3] = system: HeLa cells; assay: ROS generation, DCFH-DA staining; assay type: cell-based, human; conditions: IC50 doses, 48 hours
Protocol: HeLa cells of density 5 × 10^4 were seeded in six-well plates with high glucose DMEM and kept overnight until cell confluency was attained. […] The cells were treated with 10 mM 20,70-dichlorodihydrofluorescein diacetate (DCHF-DA) dye after washing twice with PBS buffer. Later, cells were incubated at 37 °C in complete darkness for 30 minutes. Subsequently, an inverted fluorescent microscope (Olympus Confocal Laser Scanning Microscope Fluoview Fv3000) was used to assess the ROS level of the cells. […] The amount of intracellular ROS was expressed as the average fluorescence intensity.[71,72]
ROS have been proposed as potential mediators of oxidative stress-induced apoptosis caused by titanium(IV) complexes, and the electrophoresis experiment mentioned above supports this theory.

SMILES	Binding constant with DNA [1]	IC50 [2]	ROS production compared to the control [3]
[O-]C(=NN=Cc1cc(F)ccc1[O-])c1ccncc1.[O-]C(=NN=Cc1cc(F)ccc1[O-])c1ccncc1.[Ti+4] [Ti-4-IF]	297000 M⁻¹		
[O-]C(=NN=Cc1cc(Cl)ccc1[O-])c1ccncc1.[O-]C(=NN=Cc1cc(Cl)ccc1[O-])c1ccncc1.[Ti+4] [Ti-5-ICl]		> 250 µM	increased fluorescence
[O-]C(=NN=Cc1c([O-])ccc2ccccc12)c1ccncc1.[O-]C(=NN=Cc1c([O-])ccc2ccccc12)c1ccncc1.[Ti+4] [Ti-2-IN]		> 250 µM	
COc1cccc(C=NN=C([O-])c2ccncc2)c1[O-].COc1cccc(C=NN=C([O-])c2ccncc2)c1[O-].[Ti+4] [Ti-3-IO]			increased fluorescence
